Source: patent US11147819B2, “EZH2 inhibitors for treating cancer” (Epizyme, Inc., priority 2016, dated 2021)

B1: CD40L: recombinant CD40L, a B-cell co-stimulatory molecule (protein, UniProt P29965 113-261, looked up)
CD40 ligand, soluble form: MQKGDQNPQIAAHVISEASSKTTSVLQWAEKGYYTMSNNLVTLENGKQLTVKRQGLYYIYAQVTFCSNREASSQAPFIASLCLKSPGRFERILLRAANTHSSAKPCGQQSIHLGGVFELQPGASVFVNVTDPSQVSHGTGFTSFGLLKL

What was measured:
TMD8 = assay: Combination study with tazemetostat (synergy by IC50 shifts or Calcusyn); assay type: cell-based; details: TMD8 (ABC)
Protocol: (§1) Synergy was assessed by IC50 shifts or Calcusyn. [table]

SU-DHL5 = assay: as above; assay type: cell-based; details: SU-DHL-5 (EZH2 wt)
Protocol: as §1

KARPAS-422 = assay: as above; assay type: cell-based; details: KARPAS-422 (EZH2 mutant)
Protocol: as §1

DLBCL cell lines = assay: RNAseq GSEA for plasma and memory cell gene sets; assay type: cell-based; details: 1 μM TAZ for 4 days; KARPAS-422, SU-DHL-6, Farage, SU-DHL-5, TMD8, Toledo
Protocol: FIG. 3. […] RNAseq data from KARPAS-422 (EZH2 mutant GCB), SU-DHL-6 (EZH2 mutant GCB) Farage (EZH2 wt GCB), SU-DHL-5 (EZH2 wt GCB), TMD8 (EZH2 wt ABC) and Toledo (EZH2 wt ABC) treated with 1 μM TAZ for 4 days was analyzed using GSEA (Broad Institute) for the presence of plasma and memory cell gene sets.

IκBα in SU-DHL-5 cells = assay: IκBα degradation in response to CD40L (FIG. 7B); assay type: cell-based; details: 4-day treatment, CD40L 500 ng/mL
B-cell lymphomas = details: phase I; patients with B-cell lymphomas; cited from earlier work
PRDM1 (BLIMP1) in TMD8 = assay: PRDM1 (BLIMP1) expression by qPCR or western blot; assay type: cell-based; details: ABC cell line TMD8; 7 days with 1 μM TAZ vs DMSO
Protocol: (§2) FIG. 4. Cells were treated for 7 days with 1 μM TAZ or DMSO.

[1] = system: PRDM1 (BLIMP1) in GCB lines; assay: PRDM1 (BLIMP1) expression by qPCR or western blot; assay type: cell-based; details: all GCB lines; 7 days with 1 μM TAZ vs DMSO
Protocol: as §2

Oral bioavailability = details: in vivo
Cells = assay: Apoptosis, single agents or combination, 10 days (FIG. 6B); assay type: cell-based
Protocol: (§3) FIG. 6. A) Cells were treated for 7 days with single agents or in combination. […] This effect is not seen in the ABC cell line, TMD8. B) Cells were treated for 10 days with single agents (100 ng/mL CD40L) or in combination.

[2] = system: OCI-LY19 cell line xenograft; assay: Cell line xenograft model, tumor growth; assay type: in vivo
Text: (§4) FIG. 1. A) 14 evaluable NHL patients treated (V. Ribrag ASH 2015): 13 WT+1 mutant by cobas® EZH2 Mutation Test (in development, Roche Molecular Systems, Inc.)*Cheson Criteria. B) EZH2 mutant cell lines are more sensitive to TAZ in vitro. […] Cell of origin of cell lines determined by RNAseq analysis (Scott et al. Blood 2014).

[3] = system: SU-DHL-5 cell line xenograft; assay: Cell line xenograft model, tumor growth; assay type: in vivo; details: SU-DHL-5 xenograft model
Text: as §4

[4] = system: PRDM1 in SU-DHL-5 (wt EZH2); assay: PRDM1 expression after co-treatment with TAZ and CD40L (FIG. 7A); assay type: cell-based; details: 14-day co-treatment
[5] = system: H3K27 trimethylation in KARPAS-422; assay: H3K27 trimethylation inhibition (FIG. 6C); assay type: cell-based; details: KARPAS-422, mutant EZH2 cell line
Protocol: as §3

GCB lines = assay: Combination of CD40L with TAZ (FIG. 5); assay type: cell-based

Row | Molecule | Combination effect with TAZ (FIG. 5) (TMD8) | Combination effect with TAZ (FIG. 5) (SU-DHL5) | Combination effect with TAZ (FIG. 5) (KARPAS-422) | plasma cell and memory cell gene sets (RNAseq, GSEA) (DLBCL cell lines) | IκBα degradation in response to CD40L (IκBα in SU-DHL-5 cells) | clinical response (B-cell lymphomas) | PRDM1 (BLIMP1) expression (PRDM1 (BLIMP1) in TMD8) | PRDM1 (BLIMP1) expression [1] | oral bioavailability (Oral bioavailability) | apoptosis, single agent compared to DMSO (Cells) | tumor growth in response to TAZ treatment [2] | tumor growth in response to TAZ treatment [3] | PRDM1 expression, co-treatment with TAZ [4] | effect on TAZ inhibition of H3K27 trimethylation [5] | Combination effect with TAZ (FIG. 5) (GCB lines) | apoptosis, combination with TAZ compared to TAZ single agent (Cells; 100 ng/mL CD40L)
1 | COc1cc(Nc2ncc(F)c(Nc3ccc4c(n3)NC(=O)C(C)(C)O4)n2)cc(OC)c1OC [Tamatinib] | Synergy | Synergy | Synergy |  |  |  |  |  |  |  |  |  |  |  |  | 
2 | CCN(c1cc(-c2ccc(CN3CCOCC3)cc2)cc(C(=O)NCc2c(C)cc(C)[nH]c2=O)c1C)C1CCOCC1 [tazemetostat] |  |  |  | induces a gene set that is heavily enriched for plasma cell and memory cell genes | does not affect | objective clinical responses | slight decrease | increase | orally bioavailable | significant increase of apoptosis | tumor growth inhibition | tumor growth inhibition |  |  |  | 
3 | B1 | slight synergy |  |  |  |  |  |  |  |  |  |  |  | up-regulation of PRDM1 | does not affect | antagonism | significant decrease of apoptosis
